Measured values reported in patent US9359308B2, “Pyrazine kinase inhibitors” (Portola Pharmaceuticals, Inc., priority 2011, dated 2016).

target: T1, full length active recombinant SYK enzyme (Homo sapiens, UniProt P43405); assay: Inhibition of Syk tyrosine phosphorylation activity (LANCE TR-FRET kinase assay); format: biochemical; conditions: activity in the Syk assays, class symbols
T1 construct: full length active recombinant SYK enzyme (Millipore, Calif.); purchased Millipore
Excerpt: The in vitro and in vivo human Syk activities of the inventive compounds can be determined by various procedures known in the art, such as a test for their ability to inhibit the activity of human plasma Syk. […] The IC50 value is the concentration (in nM) of the compound required to provide 50% inhibition of human Syk proteolytic activity.
An in vitro assay for detecting and measuring inhibition activity against Syk is as follows:
Inhibition of Syk Tyrosine Phosphorylation Activity
Potency of candidate molecules for inhibiting Syk tyrosine phosphorylation activity is assessed by measuring the ability of a test compound to inhibit Syk-mediated tyrosine phosphorylation of a Syk-specific substrate.
SYK tyrosine phosphorylation activity is measured using the LANCE™ Technology developed by Perkin Elmer Life and Analytical Sciences (Boston, Mass.). LANCE™ refers to homogeneous time resolved fluorometry applications using techniques such as time-resolved fluorescence resonance energy transfer assay (TR-FRET) (see generally for procedures in Perkin Elmer Application Note-How to Optimize a Tyrosine Kinase Assay Using Time Resolved Fluorescence-Based LANCE Detection, wwww.perkinelmer.com/lifesciences). The assay principle involves detection of a phosphorylated substrate using energy transfer from a phosphospecific europium-labeled antibody to streptavidin-allophycocyanin as an acceptor.
To test the ability of candidate molecules to inhibit SYK tyrosine phosphorylation activity, molecules are reconstituted in 30% DMSO and serially diluted 1:3 with the final dilution containing DMSO in the absence of the candidate molecule. The final DMSO concentration in the assay is 3%. Kinase assays are performed as a two part reaction. The first reaction is a kinase reaction and which comprises of a candidate molecule, full length active recombinant SYK enzyme (Millipore, Calif.) and biotin-labeled SYK-specific substrate biotin-DEEDYESP-OH. The second reaction involves termination of the kinase reaction and the simultaneous addition of the detection reagents-europium-labeled anti-phosphotyrosine reagent (Eu-W1024-PY100, Perkin Elmer, Boston, Mass.) and Streptavidin-Allophycocyanin detection reagent (SA-APC, Prozyme, CA). The kinase reaction is performed in a black U-bottom 96-well microtitre plate. The final reaction volume is 50 μL and contains a final concentration of 1 nM active SYK enzyme, 550 nM SYK-substrate, and 100 μM ATP diluted in a buffer containing 50 mM Tris pH 7.5, 5 mM MgCl2, and 1 mM DTT. The reaction is allowed to proceed for 1 hour at room temperature. The quench buffer contains 100 mM Tris pH 7.5, 300 mM NaCl2, 20 mM EDTA, 0.02% Brij35, and 0.5% BSA. The detection reagents are added to the reaction mixture at the following dilutions-1:500 for Eu-W1024-PY100 and 1:250 for SA-APC. The kinase reaction is terminated by the addition of 50 μL quench buffer containing the detection reagents. The detection is allowed to proceed for 1 hr at room temperature. Detection of the phosphorlated substrate in the absence and presence of inhibitors is measured in the TR-FRET instrument, Analyst HT (Molecular Probes, Sunnyvale, Calif.) and the condition for measurements are set up using CriterionHost Release 2.0 (Molecular Probes, Sunnyvale, Calif.). The settings used are a follows: excitation 360 nm, emission 665-7.5 nm, beam splitter 350 nm 50/50, flash 100 pulses, delay 60 us, integration 400 us, z-height 2 mm. Inhibition of SYK-tyrosine kinase activity is calculated as the maximum response observed in the presence of inhibitor, compared to that in the absence of inhibitor. IC50s were derived by non-linear regression analysis.

IC50 [nM] | Structure (SMILES)
1 to 10 | NC(=O)c1ncc(N[C@@H](C(N)=O)C2CC2)nc1Nc1cnc2ccccc2c1 [Example 68, (R)-5-(2-amino-1-cyclopropyl-2-oxoethylamino)-3-(quinolin-3-ylamino)pyrazine-2-carboxamide]
10 to 100 | Cc1ccc(Nc2nc(N[C@H](CC(C)C)C(N)=O)cnc2C(N)=O)cc1 [Example 69, (R)-5-(1-amino-4-methyl-1-oxopentan-2-ylamino)-3-(p-tolylamino)pyrazine-2-carboxamide]
10 to 100 | CC(C)C[C@@H](Nc1cnc(C(N)=O)c(Nc2cncc(F)c2)n1)C(N)=O [Example 70, (R)-5-(1-amino-4-methyl-1-oxopentan-2-ylamino)-3-(5-fluoropyridin-3-ylamino)pyrazine-2-carboxamide]
10 to 100 | CC(C)C[C@@H](Nc1cnc(C(N)=O)c(Nc2ccc(-n3cccn3)cc2)n1)C(N)=O [Example 71]
1 to 10 | NC(=O)c1ncc(N[C@H](C2CC2)C2(N)CC2)nc1Nc1cccc(-c2ncccn2)c1 [Example 72, (R)-5-((1-aminocyclopropyl)(cyclopropyl)methylamino)-3-(3-(pyrimidin-2-yl)phenylamino)pyrazine-2-carboxamide]
1 to 10 | CC[C@@H](Nc1cnc(C(N)=O)c(Nc2cnc3ccccc3c2)n1)C(N)=O [Example 73, (R)-5-(1-amino-1-oxobutan-2-ylamino)-3-(quinolin-3-ylamino)pyrazine-2-carboxamide]
1 to 10 | CC[C@@H](Nc1cnc(C(N)=O)c(Nc2ccc3ncccc3c2)n1)C(N)=O [Example 74, (R)-5-(1-amino-1-oxobutan-2-ylamino)-3-(quinolin-6-ylamino)pyrazine-2-carboxamide]
1 to 10 | CC[C@@H](Nc1cnc(C(N)=O)c(Nc2csc3ncccc23)n1)C(N)=O [Example 75, (R)-5-(1-amino-1-oxobutan-2-ylamino)-3-(thieno[2,3-b]pyridin-3-ylamino)pyrazine-2-carboxamide]
1 to 10 | NC(=O)c1ncc(N[C@@H](C(N)=O)C2CC2)nc1Nc1ccc2ncccc2c1 [Example 76, (R)-5-(2-amino-1-cyclopropyl-2-oxoethylamino)-3-(quinolin-6-ylamino)pyrazine-2-carboxamide]
1 to 10 | CC[C@@H](Nc1cnc(C(N)=O)c(Nc2cc(C)cc(C)c2)n1)C(N)=O [Example 77, (R)-5-(1-amino-1-oxobutan-2-ylamino)-3-(3,5-dimethylphenylamino)pyrazine-2-carboxamide]
1 to 10 | Cc1ccc(Nc2nc(N[C@@H]3CCOC[C@@H]3N)cnc2C(N)=O)cc1 [Example 78, 5-((3R,4R)-3-aminotetrahydro-2H-pyran-4-ylamino)-3-(p-tolylamino)pyrazine-2-carboxamide]
1 to 10 | NC(=O)c1ncc(N[C@@H]2CCOC[C@@H]2N)nc1Nc1cnc2ccccc2c1 [Example 79, 5-((3R,4R)-3-aminotetrahydro-2H-pyran-4-ylamino)-3-(quinolin-3-ylamino)pyrazine-2-carboxamide]
1 to 10 | CC[C@@H](Nc1cnc(C(N)=O)c(Nc2ccc(-n3ccnc3)cc2)n1)C(N)=O [Example 80, (R)-3-(4-(1H-imidazol-1-yl)phenylamino)-5-(1-amino-1-oxobutan-2-ylamino)-pyrazine-2-carboxamide]
< 1 | NC(=O)c1ncc(N[C@@H]2CCOC[C@@H]2N)nc1Nc1cccc(-n2nccn2)c1 [Example 81, 3-(3-(2H-1,2,3-triazol-2-yl)phenylamino)-5-((3R,4R)-3-aminotetrahydro-2H-pyran-4-ylamino)pyrazine-2-carboxamide]
1 to 10 | NC(=O)c1ncc(N[C@@H]2CCOC[C@@H]2N)nc1Nc1cccc(-c2ncccn2)c1 [Example 82, 5-((3R,4R)-3-aminotetrahydro-2H-pyran-4-ylamino)-3-(3-(pyrimidin-2-yl)phenylamino)pyrazine-2-carboxamide]
1 to 10 | Cc1cncc(Nc2nc(N[C@H](CC(C)C)C(N)=O)cnc2C(N)=O)c1 [Example 83, (R)-5-(1-amino-4-methyl-1-oxopentan-2-ylamino)-3-(5-methylpyridin-3-ylamino)pyrazine-2-carboxamide]
1 to 10 | Cc1cc(Nc2nc(N[C@H](CC(C)C)C(N)=O)cnc2C(N)=O)ccn1 [Example 84, (R)-5-(1-amino-4-methyl-1-oxopentan-2-ylamino)-3-(2-methylpyridin-4-ylamino)pyrazine-2-carboxamide]
10 to 100 | CC(C)C[C@@H](Nc1cnc(C(N)=O)c(Nc2ccc(C(F)(F)F)nc2)n1)C(N)=O [Example 85, (R)-5-(1-amino-4-methyl-1-oxopentan-2-ylamino)-3-(6-(trifluoromethyl)pyridin-3-ylamino)pyrazine-2-carboxamide]
10 to 100 | Cc1ccc(Nc2nc(N[C@H](CC(C)C)C(N)=O)cnc2C(N)=O)cn1 [Example 86, (R)-5-(1-amino-4-methyl-1-oxopentan-2-ylamino)-3-(6-methylpyridin-3-ylamino)pyrazine-2-carboxamide]
1 to 10 | CC(C)C[C@@H](Nc1cnc(C(N)=O)c(Nc2cccc(-c3ccncc3)c2)n1)C(N)=O [Example 87, (R)-5-(1-amino-4-methyl-1-oxopentan-2-ylamino)-3-(3-(pyridin-4-yl)phenylamino)pyrazine-2-carboxamide]
1 to 10 | CC(C)C[C@@H](Nc1cnc(C(N)=O)c(Nc2ccc(-c3ccccn3)cc2)n1)C(N)=O [Example 88, (R)-5-(1-amino-4-methyl-1-oxopentan-2-ylamino)-3-(4-(pyridin-2-yl)phenylamino)pyrazine-2-carboxamide]
1 to 10 | CC(C)C[C@@H](Nc1cnc(C(N)=O)c(Nc2ccc3c(c2)CCC(=O)N3C)n1)C(N)=O [Example 89, (R)-5-(1-amino-4-methyl-1-oxopentan-2-ylamino)-3-(1-methyl-2-oxo-1,2,3,4-tetrahydroquinolin-6-ylamino)pyrazine-2-carboxamide]
1 to 10 | CN1C(=O)CCc2cc(Nc3nc(N[C@@H]4CCCC[C@@H]4N)cnc3C(N)=O)ccc21 [Example 90, 5-((1R,2S)-2-aminocyclohexylamino)-3-(1-methyl-2-oxo-1,2,3,4-tetrahydroquinolin-6-ylamino)pyrazine-2-carboxamide]
1 to 10 | COc1cc(Nc2nc(N[C@H]3CCCC[C@@H]3N)cnc2C(N)=O)cc(OC)c1 [Example 93, 5-(((1S,2S)-2-aminocyclohexyl)amino)-3-((3,5-dimethoxyphenyl)amino)pyrazine-2-carboxamide]
> 1000 | CC(C)C[C@@H](Nc1nc(Nc2cnc3ccccc3c2)cnc1C(N)=O)C(N)=O [Example 95, (R)-3-(1-amino-4-methyl-1-oxopentan-2-ylamino)-5-(quinolin-3-ylamino)pyrazine-2-carboxamide]
10 to 100 | NC(=O)c1ncc(Nc2cccc(-n3nccn3)c2)nc1N[C@@H]1CCCC[C@@H]1N [Example 96, 5-(3-(2H-1,2,3-triazol-2-yl)phenylamino)-3-((1R,2S)-2-aminocyclohexylamino)pyrazine-2-carboxamide]
> 1000 | CC[C@@H](Nc1cnc(C(N)=O)c(-n2cnc(-c3ccc(N)cc3)c2)n1)C(N)=O [Example 97, (R)-5-(1-amino-1-oxobutan-2-ylamino)-3-(4-(4-aminophenyl)-1H-imidazol-1-yl)pyrazine-2-carboxamide]
10 to 100 | CC(C)C[C@@H](Nc1cnc(C(N)=O)c(Nc2cccc(-c3ccccn3)c2)n1)C(N)=O [Example 98, (R)-5-(1-amino-4-methyl-1-oxopentan-2-ylamino)-3-(3-(pyridin-2-yl)phenylamino)pyrazine-2-carboxamide]
1 to 10 | Cc1cncc(Nc2nc(N[C@H](CC3CC3)C(N)=O)cnc2C(N)=O)c1 [Example 99, (R)-5-(1-amino-3-cyclopropyl-1-oxopropan-2-ylamino)-3-(5-methylpyridin-3-ylamino)pyrazine-2-carboxamide]
